Reference: the NIST ThermoML archive (doi:10.1021/je900757k)
± gives the expanded uncertainty stated by the source.

Assay: isobaric coefficient of expansion
Conditions: Liquid, DSC

CCCCCCCCC [nonane]
isobaric coefficient of expansion
Conditions	278.15 K	288.15 K	298.15 K	308.15 K	318.15 K	328.15 K	338.15 K	348.15 K
5000 kPa	0.001 ± 2.5e-05 1/K	0.00103 ± 2.5e-05 1/K	0.00105 ± 2.6e-05 1/K	0.00106 ± 2.6e-05 1/K	0.00108 ± 2.7e-05 1/K	0.0011 ± 2.7e-05 1/K	0.00113 ± 2.8e-05 1/K	0.00114 ± 2.8e-05 1/K
10000 kPa	0.000977 ± 2.4e-05 1/K	0.000997 ± 2.4e-05 1/K	0.00101 ± 2.5e-05 1/K	0.00103 ± 2.5e-05 1/K	0.00104 ± 2.6e-05 1/K	0.00106 ± 2.6e-05 1/K	0.00108 ± 2.6e-05 1/K	0.00109 ± 2.7e-05 1/K
15000 kPa	0.000954 ± 2.3e-05 1/K	0.000967 ± 2.4e-05 1/K	0.000984 ± 2.4e-05 1/K	0.000995 ± 2.4e-05 1/K	0.00101 ± 2.5e-05 1/K	0.00102 ± 2.5e-05 1/K	0.00103 ± 2.5e-05 1/K	0.00104 ± 2.5e-05 1/K
20000 kPa	0.000928 ± 2.3e-05 1/K	0.00094 ± 2.3e-05 1/K	0.000955 ± 2.3e-05 1/K	0.000962 ± 2.4e-05 1/K	0.00097 ± 2.4e-05 1/K	0.000984 ± 2.4e-05 1/K	0.000992 ± 2.4e-05 1/K	0.000998 ± 2.4e-05 1/K
25000 kPa	0.000907 ± 2.2e-05 1/K	0.000917 ± 2.2e-05 1/K	0.000927 ± 2.3e-05 1/K	0.000935 ± 2.3e-05 1/K	0.000941 ± 2.3e-05 1/K	0.000949 ± 2.3e-05 1/K	0.00096 ± 2.4e-05 1/K	0.000964 ± 2.4e-05 1/K
30000 kPa	0.000886 ± 2.2e-05 1/K	0.000898 ± 2.2e-05 1/K	0.000903 ± 2.2e-05 1/K	0.000912 ± 2.2e-05 1/K	0.000915 ± 2.2e-05 1/K	0.000921 ± 2.3e-05 1/K	0.000931 ± 2.3e-05 1/K	0.000931 ± 2.3e-05 1/K
35000 kPa	0.000868 ± 2.1e-05 1/K	0.000875 ± 2.1e-05 1/K	0.000878 ± 2.2e-05 1/K	0.000883 ± 2.2e-05 1/K	0.000889 ± 2.2e-05 1/K	0.000892 ± 2.2e-05 1/K	0.000899 ± 2.2e-05 1/K	0.0009 ± 2.2e-05 1/K
40000 kPa	0.000841 ± 2.1e-05 1/K	0.000853 ± 2.1e-05 1/K	0.000856 ± 2.1e-05 1/K	0.00086 ± 2.1e-05 1/K	0.000864 ± 2.1e-05 1/K	0.000865 ± 2.1e-05 1/K	0.000866 ± 2.1e-05 1/K	0.000869 ± 2.1e-05 1/K
45000 kPa	0.000827 ± 2e-05 1/K	0.000836 ± 2e-05 1/K	0.000839 ± 2.1e-05 1/K	0.000838 ± 2.1e-05 1/K	0.000841 ± 2.1e-05 1/K	0.000843 ± 2.1e-05 1/K	0.000846 ± 2.1e-05 1/K	0.000844 ± 2.1e-05 1/K
50000 kPa	0.000811 ± 2e-05 1/K	0.000819 ± 2e-05 1/K	0.000819 ± 2e-05 1/K	0.00082 ± 2e-05 1/K	0.000825 ± 2e-05 1/K	0.000822 ± 2e-05 1/K	0.000825 ± 2e-05 1/K	0.000823 ± 2e-05 1/K
55000 kPa	0.000803 ± 2e-05 1/K	0.000799 ± 2e-05 1/K	0.000803 ± 2e-05 1/K	0.000804 ± 2e-05 1/K	0.000806 ± 2e-05 1/K	0.000803 ± 2e-05 1/K	0.000807 ± 2e-05 1/K	0.000806 ± 2e-05 1/K

CCCCCCCCCCCCCCC [pentadecane]
isobaric coefficient of expansion
Conditions	298.15 K	308.15 K	318.15 K	328.15 K	338.15 K	348.15 K
5000 kPa	0.000896 ± 2.2e-05 1/K	0.000898 ± 2.2e-05 1/K	0.000901 ± 2.2e-05 1/K	0.000904 ± 2.2e-05 1/K	0.000914 ± 2.2e-05 1/K	0.000925 ± 2.3e-05 1/K
10000 kPa	0.000871 ± 2.1e-05 1/K	0.000873 ± 2.1e-05 1/K	0.000873 ± 2.1e-05 1/K	0.000873 ± 2.1e-05 1/K	0.000883 ± 2.2e-05 1/K	0.000886 ± 2.2e-05 1/K
15000 kPa	0.000848 ± 2.1e-05 1/K	0.000848 ± 2.1e-05 1/K	0.00085 ± 2.1e-05 1/K	0.000846 ± 2.1e-05 1/K	0.000846 ± 2.1e-05 1/K	0.000854 ± 2.1e-05 1/K
20000 kPa	0.000825 ± 2e-05 1/K	0.000824 ± 2e-05 1/K	0.000824 ± 2e-05 1/K	0.000823 ± 2e-05 1/K	0.000821 ± 2e-05 1/K	0.000826 ± 2e-05 1/K
25000 kPa	0.000805 ± 2e-05 1/K	0.000803 ± 2e-05 1/K	0.000803 ± 2e-05 1/K	0.000798 ± 2e-05 1/K	0.000798 ± 2e-05 1/K	0.000801 ± 2e-05 1/K
30000 kPa	0.000793 ± 1.9e-05 1/K	0.000786 ± 1.9e-05 1/K	0.000786 ± 1.9e-05 1/K	0.000781 ± 1.9e-05 1/K	0.000782 ± 1.9e-05 1/K	0.000783 ± 1.9e-05 1/K
35000 kPa	0.000772 ± 1.9e-05 1/K	0.000767 ± 1.9e-05 1/K	0.000764 ± 1.9e-05 1/K	0.000762 ± 1.9e-05 1/K	0.00076 ± 1.9e-05 1/K	0.000758 ± 1.9e-05 1/K
40000 kPa	0.000756 ± 1.9e-05 1/K	0.000751 ± 1.8e-05 1/K	0.000746 ± 1.8e-05 1/K	0.000744 ± 1.8e-05 1/K	0.000738 ± 1.8e-05 1/K	0.000737 ± 1.8e-05 1/K
45000 kPa	0.000742 ± 1.8e-05 1/K	0.000734 ± 1.8e-05 1/K	0.000731 ± 1.8e-05 1/K	0.000726 ± 1.8e-05 1/K	0.000724 ± 1.8e-05 1/K	0.00072 ± 1.8e-05 1/K
50000 kPa	0.00073 ± 1.8e-05 1/K	0.000721 ± 1.8e-05 1/K	0.000718 ± 1.8e-05 1/K	0.00071 ± 1.7e-05 1/K	0.00071 ± 1.7e-05 1/K	0.000705 ± 1.7e-05 1/K
55000 kPa	0.000717 ± 1.8e-05 1/K	0.000709 ± 1.7e-05 1/K	0.000705 ± 1.7e-05 1/K	0.000699 ± 1.7e-05 1/K	0.000697 ± 1.7e-05 1/K	0.000694 ± 1.7e-05 1/K
